In patent US11518981B2, “Methods of enhancing engraftment activity of hematopoietic stem cells” (CHILDREN'S HOSPITAL MEDICAL CENTER, priority 2017, dated 2022):

Experiments:
[1] = system: CD34^+38^−90^+ HSCs; assay: ROS measurement (MITOSOX / CM-H2DCFDA) in HSCs; assay type: cell-based, human; settings: MITOSOX in CD34^+38^−90^+ cells
Protocol: Freshly isolated CD34^+ cells were used, wherever possible, and especially for 0 h controls. In some experiments cryopreserved CD34^+ cells were thawed for 4 hrs in IMDM containing cytokines, then washed and used for experiments. CD34^+ cells were transduced in X-VIVO 10™ (Lonza) medium supplemented with 2% human serum albumin (Baxter), recombinant human Flt-3 ligand (Flt3-L; 200 ng/mL), stem cell factor (SCF; 300 ng/mL), thrombopoietin (TPO; 100 ng/mL) (all cytokines obtained from PeproTech), and penicillin-streptomycin (ThermoFisher Scientific) on non-tissue culture treated plates coated with retronectin (4 μg/cm2, CH-296, Takara Bio Inc.). […]
PE-Cyanine 7 or APC-EFLUOR® 780, APC- or PE-conjugated antibodies directed to human CD34 (BD Biosciences 560710 or 555824), CD38 (eBiosciences, San Diego, Calif. 47-0389-42), CD90 (BioLegend 328120), CD45RA (eBiosciences 17-0458-42), CD49f (BD Biosciences 555736), CD45 (BD 55485 or Biolegend 304026), CD33 (eBiosciences 25-0338-42), CD19 (BD Biosciences 557791), or CD3 (BD Biosciences 555340). […] Total ROS and mitochondrial specific ROS were detected using 10 μM CM-H2DCFDA (ThermoFisher Scientific C6827) and 5 μM MITOSOX™ Red (Red Mitochondrial Superoxide Indicator) (ThermoFisher Scientific M36008) respectively, following manufacturer's instructions.

[2] = system: γH2AX; assay: DNA damage response (γH2AX, 53BP1) by immunofluorescence and flow cytometry; assay type: cell-based, human
Protocol: For EdU incorporation assay, cells were incubated with 10 μM EdU throughout the culture period and the CLICK-IT® Plus EdU Pacific Blue Flow Cytometry Assay Kit (ThermoFisher Scientific C10636) was used for staining. […] Samples were run through a FACSCANTOTM, FORTESSATM, or LSR 2 flow cytometers (BD Biosciences), and the data was analyzed by […] software (BD). […] II cell sorter. FACS sorted CD34+38-90+ cells were fixed in 2% paraformaldehyde and permeabilized using 0.1% […] polyether alcohol, Sigma-Aldrich). […] Cells were counterstained and mounted with […]® antifade mounting medium with DAPI (H-1200 Vector Laboratories). Images were obtained using a Nikon 90i upright microscope.

Cc1ccc(-n2nc(C(C)(C)C)cc2NC(=O)Nc2ccc(OCCN3CCOCC3)c3ccccc23)cc1 [p38i, 1-[5-tert-butyl-2-(4-methylphenyl)pyrazol-3-yl]-3-[4-(2-morpholin-4-ylethoxy)naphthalen-1-yl]urea]
ROS levels in the HSC compartment [1]: no difference
γH2AX levels in the transduced HSCs ([2]; 72 h, RV transduced cycling HSCs): significantly reduced
percentage of γH2AX^+ cells ([2]; flow cytometry, 36-42 h and 72-96 h groups): significantly reduced
γH2AX MFI and number of γH2AX positive HSC ([2]; flow cytometry, 24 h): returned to levels seen in unmanipulated HSCs
